Biological target: T1, Human autotaxin enzyme (Homo sapiens, UniProt Q13822)
T1 construct: purchased R&D System
Assay: Evaluation of autotaxin inhibitor, Method C (18:0 Lyso PC substrate, choline assay, Resorufin fluorescence)
Format: biochemical
Settings: Method C (Test Example 3), read-out: Inhibitory activity (enzyme inhibitory activity, IC50)
Summary of the method: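 Recombinant human autotaxin with compound and 200 μM 18:0 Lyso PC (stock) in Tris-HCl pH 7.5, NaCl, MgCl2, Triton X-100, 2 h RT. Released choline detected via choline oxidase/peroxidase/Amplex-type reagent, 20 min, resorufin fluorescence 531/598 nm; % inhibition vs no-compound and no-enzyme controls, concentration-response curve.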

Row | Structure (SMILES) | IC50
1 | C[C@H]1CN(Cc2ccc(C#N)cc2)C(=O)c2cc(-c3c(Br)cc(Cl)cc3CO)nn21 [Compound I-0361] | 0.1 to 1 µM
2 | CCOC(=O)CN1CC(CC(F)(F)F)n2nc(-c3ccc(Cl)cc3)cc2C1=O (stereo not shown) [Compound I-0023] | ≥ 1 µM
3 | CCCCC1CN(CC(=O)NC2(C#N)CC2)C(=O)c2cc(-c3ccc(Cl)cc3)nn21 (stereo not shown) [Compound I-0187] | 0.1 to 1 µM
4 | CCCCCC1CN(Cc2ccc(NC(C)=O)cc2)C(=O)c2cc(-c3ccc(Cl)cc3)nn21 (stereo not shown) [Compound I-0133] | ≥ 1 µM
5 | CCCCCC1CN(CC(=O)N[C@@H](C(=O)O)c2ccccc2)C(=O)c2cc(-c3ccc(Cl)cc3)nn21 (stereo partly shown) [Compound I-0064] | < 0.01 µM
6 | CCCCC1CN(Cc2ccc(C#N)cc2)C(=O)c2cc(N(C)Cc3ccc(Cl)cc3)nn21 (stereo not shown) [Compound I-0301] | ≥ 1 µM
7 | CCCC(=O)Nc1cc(Cl)ccc1-c1cc2n(n1)[C@@H](C)CN(Cc1ccc(C#N)cc1)C2=O [Compound I-0321] | 0.01 to 0.1 µM
8 | CCCCC1CN(CC(=O)C2CCCCC2)C(=O)c2cc(-c3ccc(Cl)cc3)nn21 (stereo not shown) [Compound I-0254] | 0.01 to 0.1 µM
9 | CCCCCC1CN(CC(=O)N2CCC(C(N)=O)C2)C(=O)c2cc(-c3ccc(Cl)cc3)nn21 (stereo not shown) [Compound I-0112] | 0.1 to 1 µM
10 | CCCCC1CN(Cc2nc3ccccc3o2)C(=O)c2cc(-c3ccc(Cl)cc3)nn21 (stereo not shown) [Compound I-0261] | 0.1 to 1 µM
11 | CCCCC1CN(CC(=O)N2CCC[C@@H](C)C2)C(=O)c2cc(-c3ccc(Cl)cc3)nn21 (stereo partly shown) [Compound I-0248] | 0.1 to 1 µM
12 | CCOC(=O)CN1C(=O)c2cc(-c3ccc(Cl)cc3)nn2[C@H]2CCC[C@H]21 [Compound I-0009] | 0.1 to 1 µM
13 | CCOCC1CNC(=O)c2cc(-c3ccc(Cl)cc3)nn21 (stereo not shown) [Compound I-0198] | ≥ 1 µM
14 | CCCCC1CN(Cc2ccc(C#N)cc2)C(=O)c2cc(N3CCC(C(F)(F)F)CC3)nn21 (stereo not shown) [Compound I-0305] | 0.1 to 1 µM
15 | C[C@H]1CN(CC(=O)N(C)CCC#N)C(=O)c2cc(-c3ccc(C#N)cc3NC(=O)CF)nn21 [Compound I-0353] | < 0.01 µM
16 | CCCCCC1CN(CC(=O)N2CCCC(O)C2)C(=O)c2cc(-c3ccc(Cl)cc3)nn21 (stereo not shown) [Compound I-0092] | 0.1 to 1 µM
17 | CCCCCC1CN(CC(=O)N2CCCC(CO)C2)C(=O)c2cc(-c3ccc(Cl)cc3)nn21 (stereo not shown) [Compound I-0089] | 0.01 to 0.1 µM
18 | CCCOCC1CN(CC(=O)N2CCC(C(=O)O)CC2)C(=O)c2cc(-c3ccc(Cl)cc3)nn21 (stereo not shown) [Compound I-0319] | < 0.01 µM
19 | CCCCCC1CN(CC(=O)N2CCCC(c3ccccc3)C2)C(=O)c2cc(-c3ccc(Cl)cc3)nn21 (stereo not shown) [Compound I-0106] | 0.1 to 1 µM
20 | CCCCCC1CN(CNC(C)=O)C(=O)c2cc(-c3ccc(Cl)cc3)nn21 (stereo not shown) [Compound I-0008] | 0.01 to 0.1 µM

Row | Structure (SMILES) | IC50
21 | O=C(O)c1cccc(CN2C(=O)c3cc(-c4ccc(Cl)cc4)nn3[C@H]3CCC[C@H]32)c1 [Compound I-0149] | 0.1 to 1 µM
22 | CCCCCC1CN(CC(=O)N2CCCC2C)C(=O)c2cc(-c3ccc(Cl)cc3)nn21 (stereo not shown) [Compound I-0081] | 0.1 to 1 µM
23 | CCCCCC1CN(CC(=O)NCCCC)C(=O)c2cc(-c3ccc(Cl)cc3)nn21 (stereo not shown) [Compound I-0088] | 0.1 to 1 µM
24 | CC(C)Nc1cc(Cl)ccc1-c1cc2n(n1)[C@@H](C)CN(Cc1ccc(C#N)cc1)C2=O [Compound I-0349] | 0.1 to 1 µM
25 | CCCCC1CN(C2CCN(CC#N)C2=O)C(=O)c2cc(-c3ccc(Cl)cc3)nn21 (stereo not shown) [Compound I-0292] | 0.01 to 0.1 µM
26 | CCCCCC1CN(CC(=O)NCCN(C)C)C(=O)c2cc(-c3ccc(Cl)cc3)nn21 (stereo not shown) [Compound I-0103] | ≥ 1 µM
27 | CC(=O)Nc1cc(C#N)ccc1-c1cc2n(n1)[C@@H](C)CN(C1CCN(CC(F)(F)F)C1=O)C2=O (stereo partly shown) [Compound I-0367] | 0.01 to 0.1 µM
28 | CCCCCC1CN(CC(=O)N2CCCC2CO)C(=O)c2cc(-c3ccc(Cl)cc3)nn21 (stereo not shown) [Compound I-0040] | 0.1 to 1 µM
29 | CCCCCC1CN(CC(=O)N2CCCCC2CC(=O)O)C(=O)c2cc(-c3ccc(Cl)cc3)nn21 (stereo not shown) [Compound I-0068] | < 0.01 µM
30 | C[C@H]1CN(CC(=O)N(C)CCC#N)C(=O)c2cc(-c3ccc(C#N)cc3NC(=O)C3CC3)nn21 [Compound I-0350] | < 0.01 µM
31 | CCCCC1CN(CC(=O)NCCO)C(=O)c2cc(-c3ccc(Cl)cc3)nn21 (stereo not shown) [Compound I-0218] | 0.1 to 1 µM
32 | CC(C)OCC1CN(Cc2ccc(C#N)cc2)C(=O)c2cc(-c3ccc(Cl)cc3)nn21 (stereo not shown) [Compound I-0193] | 0.1 to 1 µM
33 | CCCCC1CN(Cc2ccccn2)C(=O)c2cc(-c3ccc(Cl)cc3)nn21 (stereo not shown) [Compound I-0256] | 0.1 to 1 µM
34 | CCCCCC1CN(Cc2ccccc2CS(=O)(=O)c2ccccc2)C(=O)c2cc(-c3ccc(Cl)cc3)nn21 (stereo not shown) [Compound I-0144] | ≥ 1 µM
35 | CCCCC1CN(CC2CN(C(C)C)C(=O)O2)C(=O)c2cc(-c3ccc(Cl)cc3)nn21 (stereo not shown) [Compound I-0275] | 0.01 to 0.1 µM
36 | CCCCC1CN(CCn2cccc2)C(=O)c2cc(-c3ccc(Cl)cc3)nn21 (stereo not shown) [Compound I-0267] | 0.1 to 1 µM
37 | CCCCCC1CN(CC(=O)N2CCCCC2CO)C(=O)c2cc(-c3ccc(Cl)cc3)nn21 (stereo not shown) [Compound I-0090] | 0.01 to 0.1 µM
38 | CCCCCC1CN(CC(=O)Nc2cccc(CC(=O)O)c2)C(=O)c2cc(-c3ccc(Cl)cc3)nn21 (stereo not shown) [Compound I-0056] | 0.01 to 0.1 µM
39 | CCCCC1CN(CN)C(=O)c2cc(-c3ccc(Cl)cc3)nn21 (stereo not shown) [Compound I-0288] | ≥ 1 µM
40 | CCOC(=O)CN1C(=O)c2cc(-c3ccc(Cl)cc3)nn2C2COCC21 (stereo not shown) [Compound I-0027] | ≥ 1 µM

Row | Structure (SMILES) | IC50
41 | C[C@H]1CN(CC(=O)N(C)CCC#N)C(=O)c2cc(-c3ccc(C#N)cc3NC(=O)CC(F)(F)F)nn21 [Compound I-0352] | 0.01 to 0.1 µM
42 | C[C@H]1CN(Cc2ccccc2OCCCN(C)C)C(=O)c2cc(-c3ccc(Cl)cc3)nn21 [Compound I-0168] | ≥ 1 µM
43 | CC(=O)Nc1cc(Cl)ccc1-c1cc2n(n1)[C@@H](C)CN(Cc1ccc(C#N)cc1)C2=O [Compound I-0285] | < 0.01 µM
44 | CCCC1CN(Cc2ccc(C#N)cc2)C(=O)c2cc(-c3ccc(Cl)cc3)nn21 (stereo not shown) [Compound I-0181] | 0.1 to 1 µM
45 | CCOC(=O)CN1CC(CC)n2nc(-c3ccc(Cl)cc3)cc2C1=O (stereo not shown) [Compound I-0017] | ≥ 1 µM
46 | CC(=O)Nc1cc(C#N)ccc1-c1cc2n(n1)C(CC(F)(F)F)CN(Cc1ccc(C#N)cc1)C2=O (stereo not shown) [Compound I-0370] | 0.01 to 0.1 µM
47 | N#CC1(NC(=O)CN2CC(COCC(F)(F)F)n3nc(-c4ccc(Cl)cc4)cc3C2=O)CC1 (stereo not shown) [Compound I-0314] | 0.1 to 1 µM
48 | CCCCC1CN(Cc2ccc(C#N)cc2)C(=O)c2cc(-c3ccc(Cl)cc3NS(C)(=O)=O)nn21 (stereo not shown) [Compound I-0308] | ≥ 1 µM
49 | CCCCCC1CN(CC(=O)N2CCC(O)C2)C(=O)c2cc(-c3ccc(Cl)cc3)nn21 (stereo not shown) [Compound I-0035] | 0.1 to 1 µM
50 | CCCCCC1CN(CC(=O)N2CCC(c3ccccc3)C2)C(=O)c2cc(-c3ccc(Cl)cc3)nn21 (stereo not shown) [Compound I-0110] | 0.1 to 1 µM
51 | C[C@H]1CN(CC(=O)N(C)CC(=O)O)C(=O)c2cc(-c3ccc(Cl)cc3)nn21 [Compound I-0155] | ≥ 1 µM
52 | CCCCC1CN(Cc2ccc(C#N)cc2)C(=O)c2cc(N3[C@@H]4CC[C@H]3CC(F)(F)C4)nn21 (stereo partly shown) [Compound I-0307] | ≥ 1 µM
53 | CCCCCC1CN(CC(=O)N2CCOCC2)C(=O)c2cc(-c3ccc(Cl)cc3)nn21 (stereo not shown) [Compound I-0101] | 0.1 to 1 µM
54 | CCOC(=O)CN1C(=O)c2cc(-c3ccc(Cl)cc3)nn2[C@@H]2CCC[C@@H]21 [Compound I-0010] | ≥ 1 µM
55 | C[C@H]1CN(CC(=O)NCC(=O)O)C(=O)c2cc(-c3ccc(Cl)cc3)nn21 [Compound I-0162] | ≥ 1 µM
56 | CCCCCC1CN(CC(=O)N2CCCCC2Cc2ccccc2)C(=O)c2cc(-c3ccc(Cl)cc3)nn21 (stereo not shown) [Compound I-0030] | ≥ 1 µM
57 | C[C@H]1CN(CC(=O)N2CCOCC2)C(=O)c2cc(-c3ccc(Cl)cc3)nn21 [Compound I-0152] | ≥ 1 µM
58 | CCCCC1CN(CC(=O)NCc2nn[nH]n2)C(=O)c2cc(-c3ccc(Cl)cc3)nn21 (stereo not shown) [Compound I-0232] | 0.01 to 0.1 µM

From patent publication US10189843B2, “Fused pyrazole derivative having autotaxin inhibitory activity” (The University of Tokyo, priority 2014, dated 2019)
